In patent US20250177303A1, “A DRUG NANOCARRIER SYSTEM TO DELIVER A COMBINATION OF TLR AGONISTS AND/OR A LIPOXIN PLUS IMMUNOGENIC CELL DEATH INDUCING CHEMOTHERAPEUTIC AGENTS FOR CANCER IMMUNOTHERAPY” (The Regents of the University of California, priority 2022, published 2025):
Entries after “also recorded” stand apart in the source; their conditions may differ.

Experiments:
[1] = Subcutaneous KPC tumor model, body weight and blood parameters (safety); assay type: in vivo, B6129SF1/J mice; details: blood on day 21, 4 IV injections, 3M-052 2 mg/kg, IRIN 40 mg/kg
Procedure: Table 10. A subcutaneous KPC tumor model was established in B6129SF1/J mice. […] Blood was collected from the sacrificed animals on day 21. The biochemical parameters were assayed by UCLA Division of Laboratory Animal Medicine (DLAM) diagnostic laboratory services. These parameters include white blood cell (WBC), alkaline phosphatase (ALP), aspartate aminotransferase (AST), alanine aminotransferase (ALT), blood urea nitrogen (BUN), creatinine, calcium, and phosphorus.
A subcutaneous KPC tumor model was established in immunocompetent B6129SF1/J mice, using protocols approved by the UCLA Animal Research Committee. Briefly, 100 μL of a DMEM/Matrigel (1:1 v/v) suspension, containing 1×10^6 KPC cells, was subcutaneously injected into the right flank of female B6129SF1/J mice, 8-10 weeks old. […] Injections were given every 3-4 days, using the dosing schedule that delivers the equivalent of 2 mg/kg and 40 mg/kg, respectively, for 3M-052 and IRIN. Subcutaneous KPC tumor size and animal weight were monitored every 2 days. The tumor size was calculated according to the formula: (Width^2×Length)/2.
We also collected blood for separating serum after centrifugation at 3500 rpm for 20 min. The following biochemical parameters were assayed by UCLA Division of Laboratory Animal Medicine (DLAM) diagnostic laboratory services: white blood cell (WBC), alkaline phosphatase (ALP), aspartate aminotransferase (AST), alanine aminotransferase (ALT), blood urea nitrogen (BUN), creatinine, calcium, and phosphorus.

[2] = Pharmacokinetics of 3M-052 and IRIN in plasma (HPLC); assay type: in vivo, healthy B6129SF1/J mice; details: single IV, 3M-052 2 mg/kg, IRIN 40 mg/kg
Procedure: Free 3M-052 and IRIN were extracted by methanol and measured by HPLC.
The harvested tumor and organ samples, collected in the drug biodistribution experiment, were weighed and homogenized. The collected plasma, tumor, and organ homogenates were extracted in methanol, using 1:5, 1:4, and 1:3 v/v dilutions, respectively. The extracts were vortexed for 20 s and centrifuged at 13000 rpm for 10 min, following which the drug-containing supernatants were filtrated through 0.22 μm filters to perform HPLC analysis. The HPLC system is operated by a Knauer Smartline Pneumatic Pump, C18 column, K-2600 spectrophotometer, and Gina data acquisition software. The mobile phase consisted of mobile phase A (0.01% trifluoroacetic acid in water) and mobile phase B (0.01% trifluoroacetic acid in methanol) as 70% A and 30% B (v/v). A 20 μL of the sample was injected to measure the 3M-052 and IRIN absorptions at 320 and 360 nm. The 3M-052 and IRIN standard curves were generated over the maximal concentrations of 40 and 100 μg/mL respectively.

subcutaneous KPC tumor [3] = assay: Subcutaneous KPC tumor model, tumor growth (3M-052/IRIN carriers); details: for Inhibition of tumor growth compared to saline: day 20, p<0.001
Procedure: The schematic in FIG. 6, panel A depicts the treatment outline for conducting the subcutaneous KPC tumor experiment. […] Tumor-bearing mice were randomly divided into 5 groups (n=6 or 7), which received IV administration of the different treatment modalities, every 3-4 days on 4 occasions. […] IRIN was administered at 40 mg/kg while the 3M-052 dose was delivered at 2 mg/kg. FIG. 6, panel B, depicts the average subcutaneous KPC tumor growth kinetics, as determined by tumor volume. Tumor size was measured every 2 days, and tumor volume was calculated by the formula: tumor volume (mm^3)=(length in mm)×(width in mm)^2/2.
KPC cells were subcutaneously injected into the right flank of female B6129SF1/J mice for in vivo experimentation. […] Subcutaneous tumor sizes were monitored every 2 days.

RAW264.7 macrophages = assay: RAW264.7 macrophage activation (CD80 flow cytometry, IL-12p40 and TNF-α ELISA); assay type: cell-based, murine; details: RAW264.7, 10 μM, 21 h
Procedure: (§1) Having confirmed effective intracellular delivery of TLR7 activation, the next task was to determine the effect of the 3M-silicasome in the ex vivo activation of macrophages and DCs. These assays were performed in RAW264.7 macrophages and murine bone marrow-derived dendritic cells (BMDCs). RAW264.7 and BMDCs were treated with 10 μM each of R848 (positive control), free 3M-052, or the 3M-silicasome for 21 hours before assessing CD80 expression (FIG. 16, panels C and E). […] We also quantified the release of two key pro-inflammatory cytokines, IL-12p40 and TNF-α by ELISA in the same cell types, using similar stimuli.
RAW264.7 cells (1×10^5 cells/well) were cultured in 48-well plates for 24 h, before the addition of PBS or 10 μM concentrations of R848, free 3M-052 or the 3M-silicasome for a further 21 h. Immature BMDCs (5×10^5 cells/well) were cultured in 24-well plates, receiving the same dose of R848, free 3M-052, and 3M-silicasome for 21 h. […]
(§2) For flow cytometry analysis of surface markers, cells were washed with cell staining buffer, before staining RAW264.7 cells with anti-CD80 or BMDCs with FITC-conjugated anti-CD11c and anti-CD80 on ice, according to the manufacturer's instructions. The assessment of the differentiation and activation markers were evaluated by flow cytometry (LSRFortessa; BD Biosciences), analyzed by FlowJo software.

[4] = test system: murine bone marrow-derived dendritic cells (BMDCs); assay: BMDC activation (flow cytometry, IL-12p40 and TNF-α ELISA); assay type: cell-based; details: 10 μM, 21 h
Procedure: as §1
Bone marrow-derived dendritic cells (BMDCs) were prepared according to our established procedure, with a slight modification.^[42] Bone marrow cells flushed from the femur and tibia of B6/129 mice were collected and red blood cells were lysed by incubating in ACK Lysing Buffer. […]
as §2

[5] = test system: LN-resident dendritic cells (LN-DCs); assay: Subcutaneous KPC tumor model, flow cytometry of inguinal lymph node dendritic cells; assay type: in vivo, B6129SF1/J mice; details: inguinal lymph nodes
Text: Subcutaneous tumor implantation in the rear animal flank allows lymphatic drainage to the regional inguinal lymph nodes (LNs), which were harvested to assess therapeutic impact on LN-resident dendritic cells (LN-DCs). This reasoning is premised on the possibility that LN participation in the cancer immunity cycle may be able to strengthen the ICD response by increasing recruitment of newly-activated cytotoxic T-cells back to the principal tumor site. Following inguinal LN harvesting and cellular release, initial flow cytometry gating selected singlet live cells (FIG. 26). Further gating on the CD11c^+/CD45^+ DC subset was used to quantify CD80 and CD86 expression, representative of the surface receptors on an activated DC subset, participating in T-cell activation. […] We also obtained evidence that the response boosting involves LNDC participation as a key component of the cancer immunity cycle.
Following animal sacrifice, photographs were obtained of the harvested tumors, which were subsequently fixed in 10% formalin for IHC staining by the UCLA Translational Pathology Core Laboratory. Image processing was performed using Aperio ImageScope software (Leica). IHC analysis was performed to assess tumor staining intensity for CD8 and FoxP3. Additionally, we assessed the immune response in the draining inguinal lymph nodes (LNs) harvested from the sacrificed animals. […]

[6] = cited from earlier work
TGF-β activated hPSCs = assay: IL-6 secretion from TGF-β activated human pancreatic stellate cells (ELISA); assay type: cell-based; details: 1-100 nM LXA4, 48 h, TGF-β 20 ng/mL
Procedure: HPaSteCs were seeded at 2500 cells/well in a 96-well plate and activated with TGF-p (20 ng/mL) overnight. The next day, hPSCs were treated with 1-100 nM of LXA4 in free and liposomal form. After 48 h of incubation, the supernatant was collected and analysed for IL-6 secretion with ELISA. […] A possible explanation is provided by the schematic in FIG. 11, panel A.

orthotopic KPC-luc tumor = assay: Orthotopic KPC-luc tumor model, efficacy (IVIS bioluminescence, tumor weight, metastasis); assay type: in vivo, B6129SF1/J mice
Procedure: FIG. 8, panel A, depicts the experimental outline of the study conducted by orthotopic implantation KPC-luc tumor cells in the pancreatic tail of syngeneic mice. In brief, 50 μL of PBS/Matrigel (6:4 v/v), containing 0.8×10^6 KPC-luc cells was orthotopically injected into the tail of the pancreas of female B6129SF1/J mice 8 days before the onset of treatment. […] FIG. 8, panel C depicts the average quantitative tumor bioluminescence in each group at day 21, as calculated by IVIS software. **p<0.01.
Mice were sacrificed on day 21. FIG. 8, panel D, depicts the IVIS imaging performed on the ex vivo explanted tumor tissues and potential metastatic organs on day 21. […] FIG. 8, panel G depicts animal body weights over a time period of 21 days.
50 μL of a DMEM/Matrigel (6:4 v/v) suspension, containing 8×10^5 KPC-luc cells, was injected into the tail of the pancreas in female B6129SF1/J mice by a survival surgery procedure. […] The dose equivalents of 3M-052 and IRIN were 2 mg/kg and 40 mg/kg per dose, respectively. Animal weight was monitored every 2 days.
To perform the bioluminescence imaging of the luciferase-expressing tumors, mice were injected intraperitoneal with 50 mg/kg D-Luciferin on day 7, 15, 18, and 21. Ex vivo IVIS images of tumors and major organs, collected from sacrificed animals, were obtained on day 21. In addition, we also obtained photographs and weighed the harvested tumors, which were subsequently fixed in 10% formalin for the performance of IHC staining.

subcutaneous KPC tumor [7] = assay: IHC of T lymphocytes and perforin in KPC tumors (lipo-LXA4-IRIN study); assay type: in vivo, B6129SF1/J mice; details: normalized over no treatment control
KPC cells = assay: In vitro killing of KPC cells, CCK-8 assay; assay type: cell-based, murine; details: 50-500 μM IRIN, 48 h
Procedure: 20 μL of CCK-8 solution was added to each well and the plates were incubated for an additional 1-2 h in an incubator. The absorbance of each well was assessed at 450 nm in a microplate reader. Cytotoxicity (% dead cells) was calculated using the formula: (ODsample−ODblank)/(ODcontrol−ODblank)×100.

`CCCCCCCCCCCCCCCCCC(=O)NCCCCOn1c(CCCC)nc2c(N)nc3ccccc3c21` [free 3M-052, Telratolimod] showed an ALP [1] of 64.3 ± 7.6 U/L, an ALT [1] of 32.3 ± 11.9 U/L and an AST [1] of 95.0 ± 14.0 U/L. For the same compound, the BUN [1] was 16.0 ± 2.0 mg/dL, the Calcium [1] was 8.7 ± 0.2 mg/dL and the Creatinine [1] was 0.0 ± 0.0 mg/dL. The Phosphorous [1] was 7.2 ± 1.3 mg/dL, the WBC [1] was 3.5 ± 0.1 10^3/μL and the “Clearance from the blood circulation” value [2] was “rapidly cleared”. The “Effect on tumor volume growth” value (subcutaneous KPC tumor [3]; IV every 3-4 days x4, 3M-052 2 mg/kg, IRIN 40 mg/kg) was “modest effects”, the “Inhibition of tumor growth compared to saline” value (subcutaneous KPC tumor [3]) was “statistically significant compared to the saline control” and the “Inhibition of tumor growth compared between treatments” value (subcutaneous KPC tumor [3]; tumor volume, comparison among treatment groups) was “significantly reduced compared to treatment with single-drug or dual-drug silicasomes”. For the same compound, the “CD80 cell surface expression” value (RAW264.7 macrophages) was “significant increase in cell surface expression of a maturation marker”, the “IL-12p40 and TNF-α release” value (RAW264.7 macrophages; ELISA) was “higher responses” and the “CD80 cell surface expression” value [4] was “significant increase in cell surface expression of a maturation marker”. For the same compound, the “IL-12p40 and TNF-α release” value ([4]; ELISA) was “higher responses”, the “CD80 and CD86 expression in CD11c+/CD45+ population” value ([5]; 4 rounds of treatment) was “up-regulated” and the “Percentage of CD45+/CD11c+ LN-DCs” value ([5]; day 21, compared to saline and free IRIN) was “increase in the percentage of CD45^+/CD11c^+ LN-DCs”.

In the case of `O=C1c2c(O)ccc(O)c2C(=O)c2c(NCCNCCO)ccc(NCCNCCO)c21` [mitoxantrone], the Water solubility ([6]; drugbank) is listed as 89 mg/mL.

In the case of `CC(=O)O[C@@]12CO[C@@H]1C[C@H](O)[C@@]1(C)C(=O)[C@H](O)C3=C(C)[C@@H](OC(=O)[C@H](O)[C@@H](NC(=O)OC(C)(C)C)c4ccccc4)C[C@@](O)([C@@H](OC(=O)c4ccccc4)[C@H]21)C3(C)C` [docetaxel], the Ethanol solubility [6] is listed as about 100 mg/mL.

For `CCCCC[C@H](O)/C=C/C=C\C=C\C=C\[C@@H](O)[C@@H](O)CCCC(=O)O` [LXA4, lipoxin A4], the IL-6 release (TGF-β activated hPSCs) was “significantly inhibited IL-6 release in a concentration-dependent manner”.

Work on `CCc1c2c(nc3ccc(OC(=O)N4CCC(N5CCCCC5)CC4)cc13)-c1cc3c(c(=O)n1C2)COC(=O)[C@]3(O)CC` [free IRIN, Irinotecan] yielded an ALP [1] of 91.0 ± 1.7 U/L, an AST [1] of 66.3 ± 22.2 U/L and a BUN [1] of 17.0 ± 1.0 mg/dL. It also gave a Calcium [1] of 8.9 ± 0.1 mg/dL, a Creatinine [1] of 0.0 ± 0.1 mg/dL and a Phosphorous [1] of 7.4 ± 0.5 mg/dL. For the same compound, the WBC [1] was 3.9 ± 0.5 10^3/μL, the Tumor bioluminescence intensity (orthotopic KPC-luc tumor; day 21, IV every 3 days x4, compared to saline or free IRIN) was “little effect on orthotopic tumors” and the “Metastatic spread to surrounding organs” value (orthotopic KPC-luc tumor; ex vivo IVIS imaging, day 21) was “same metastatic burden; also recorded: evidence for splenic involvement”. For the same compound, the “Inhibition of tumor growth compared to saline” value (subcutaneous KPC tumor [3]) was “statistically significant compared to the saline control”, the Perforin signal (subcutaneous KPC tumor [7]) was “increase in the perforin levels compared to the no-treatment control” and the “Cytotoxicity to KPC cells” value (KPC cells) was “dose-dependent cytotoxicity, with a steeper decline in viability”.
